Assay results from paper PMC3664696 (The Journal of General Physiology, 2013).

Target: T1, ASCT2 (alanine serine cysteine transporter 2) (Rattus norvegicus, UniProt D3ZJ25)
T1 sequence (D3ZJ25 1-555): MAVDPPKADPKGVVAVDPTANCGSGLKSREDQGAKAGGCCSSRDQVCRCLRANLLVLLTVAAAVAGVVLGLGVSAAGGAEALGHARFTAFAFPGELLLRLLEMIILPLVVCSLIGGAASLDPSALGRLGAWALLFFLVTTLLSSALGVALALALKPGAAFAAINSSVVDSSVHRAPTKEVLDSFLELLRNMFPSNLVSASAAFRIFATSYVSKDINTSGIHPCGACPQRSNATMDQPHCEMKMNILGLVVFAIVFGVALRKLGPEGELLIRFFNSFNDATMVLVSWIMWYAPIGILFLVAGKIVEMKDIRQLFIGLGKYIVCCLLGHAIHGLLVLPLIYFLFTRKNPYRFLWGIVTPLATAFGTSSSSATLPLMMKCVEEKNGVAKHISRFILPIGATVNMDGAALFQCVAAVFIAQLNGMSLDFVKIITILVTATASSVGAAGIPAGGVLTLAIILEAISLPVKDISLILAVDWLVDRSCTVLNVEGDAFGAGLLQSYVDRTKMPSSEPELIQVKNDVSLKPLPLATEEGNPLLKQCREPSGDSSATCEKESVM
Assay: whole-cell voltage clamp: alanine-induced anion currents
Type: cell-based

## C[C@H](N)C(=O)O [alanine]
  Km: 160 ± 50 µM
